Test results reported in ChEMBL document CHEMBL4665729, “The SARS-CoV-2 main protease as drug target” (Bioorg Med Chem Lett, 2020).

Legend:
[1] = Inhibition of SARS-CoV-2 main protease expressed in expressed in BL21(DE3) Escherichia Coli […] by FRET assay; parameters: species or system Severe acute respiratory syndrome coronavirus 2
[2] = system: Severe acute respiratory syndrome coronavirus 2; experiment: Inhibition of SARS-CoV-2 main protease expressed in expressed in BL21(DE3) Escherichia Coli […] by measuring ratio of K2/Ki by FRET assay

| SMILES | EC50 [1] | Ki [1] | Ratio [2] |
| --- | --- | --- | --- |
| CC(C)(C)NC(=O)N[C@H](C(=O)N1C[C@H]2[C@@H]([C@H]1C(=O)NC(CC1CCC1)C(=O)C(N)=O)C2(C)C)C(C)(C)C (stereo partly drawn) [BOCEPREVIR] | 1.31 µM | 1.18 µM | – |
| CC(C)C[C@H](NC(=O)OCc1ccccc1)C(=O)N[C@@H](CC1CCNC1=O)C(O)S(=O)(=O)O (stereo partly drawn) | – | – | 40800 M⁻¹ s⁻¹ |
